Broadly, the IC50 is the concentration needed to halve the response being measured.

Like-named read-outs stand apart in the source and are kept apart here.

The test system of data set [1] is Aβ40 in conditioned medium of cells stably expressing Amyloid Precursor Protein (APP). Put plainly: In vitro BACE cell-based assay (HEK cell assay, Aβ40 sandwich ELISA). As to conditions: Homo sapiens, HEK293; average IC50, Aβ40, 24 h incubation. In a few lines: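 Aβ40 in supernatants was measured by time-resolved fluorescence sandwich ELISA using pAb40 capture and biotinylated 6E10 detection, with antibody incubations at 4 °C. Stable APP cells were exposed to compounds for 24 h in a 10-point series (top dose 100 or 10 µM, 0.1% DMSO). IC50 was fitted from the concentration-response.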
(In general: In an ELISA, binding on a coated surface is turned into a signal by an enzyme label.)

The subject of the next data set is Abeta 40. Put plainly: In vivo inhibition of beta-secretase: Abeta 40 reduction in CSF and brain of the rat. Particulars: 10 mpk, after 4 hrs. An excerpt: In Vivo Inhibition of Beta-Secretase
Several animal models, including mouse, rat, dog, and monkey, may be used to screen for inhibition of beta-secretase activity in vivo following administration of a test compound sample. Animals used in this invention can be wild type, transgenic, or gene knockout animals. For example, the Tg2576 mouse model, prepared and conducted as described in Hsiao et al., 1996, Science 274, 99-102, and other non-transgenic or gene knockout animals are useful to analyze in vivo inhibition of Amyloid beta peptide (Abeta) production in the presence of inhibitory test compounds. Generally, 2 to 18 month old Tg2576 mice, gene knockout mice or non-transgenic animals are administered test compounds formulated in vehicles, such as cyclodextran, phosphate buffers, hydroxypropyl methylcellulose or other suitable vehicles. One to twenty-four hours following the administration of compound, animals are sacrificed, and brains as well as cerebrospinal fluid (CSF) and plasma are removed for analysis of A-beta levels and drug or test compound concentrations (Dovey et al., 2001, Journal of Neurochemistry, 76, 173-181) Beginning at time 0, animals are administered by oral gavage, or other means of delivery such as intravenous injection, an inhibitory test compound of up to 100 mg/kg in a standard, conventional formulation, such as 2% hydroxypropyl methylcellulose, 1% Tween80. A separate group of animals receive 2% hydroxypropyl methylcellulose, 1% Tween80 alone, containing no test compound, and serve as a vehicle-control group. At the end of the test period, animals are sacrificed and brain tissues, plasma or cerebrospinal fluid are collected. Brains are either homogenized in 10 volumes (w/v) of 0.2% diethylamine (DEA) in 50 mM NaCl (Best et al., 2005, Journal of Pharmacology and Experimental Therapeutics, 313, 902-908), or in 10 volumes of 0.5% TritonX-100 in Tris-buffered saline (pH at about 7.6). Homogenates are centrifuged at 355,000 g, 4° C. for 30 minutes. CSF or brain supernatants are then analyzed for the presence of A-beta peptide by specific sandwich ELISA assays based on ECL (Electrochemiluminescence) technology. For example, rat Abeta40 is measured using biotinylated-4G8 (Signet) as a capture antibody and Fab40 (an in-house antibody specific to the C-terminal of Abeta40) as a detection antibody. For example, 4 hours after administration of 30 mg/kg oral dose of the test compound in 2% hydroxypropyl methylcellulose, 1% Tween80 (pH2.2) to 200 g male Sprague Dawley rats, amyloid beta peptide levels are measured for reduction by X % and Y % in cerebrospinal fluid and brain, respectively, when compared to the levels measured in the vehicle-treated rats.
• Oral: 2% HPMC, 1% Tween80, pH 2.2 • IV: 5% EtOH, 45% Propylene glycol in 5% Dextrose
The compounds of the invention may be shown to reduce the formation and/or deposition of amyloid beta peptide in the cerebrospinal fluid (CSF) as well as in the brain of a mouse or rat at either 3 mpk, 10 mpk or 30 mpk (mpk=mg compound per kg weight of the animal) dosing concentrations after 4 hrs.

In data set [2] the target is BACE 1 (beta secretase enzyme) (Homo sapiens (Human), UniProt P56817). Put plainly: In vitro enzymatic BACE FRET assay. It counts as biochemical. Particulars: average IC50. In a few lines: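 The enzyme was tested in 0.05 M acetate, pH 4.2, with 10% DMSO final and 100 uM genapol. The reaction was started with 50 nM quenched FRET peptide substrate, incubated one hour and stopped with Tris to neutral pH. Cleavage was read as fluorescence ([…]).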

Another data set addresses Cathepsin D (Homo sapiens (Human), UniProt P07339). Put plainly: In vitro enzymatic Cat D (Cathepsin D) FRET assay. It counts as biochemical. Particulars: average IC50. In a few lines:
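CHO-expressed recombinant enzyme in 0.05 M citrate pH 3.5, 5 mM CHAPS, 10% DMSO final; reaction started with 20 nM quenched-peptide FRET substrate (cleavage site spanned by fluorophore/quencher), 1 h incubation.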

The conditions of data set [3]: people of the phase I trial; cited from earlier work.
The test system of data set [4] is pigment epithelium of the rat's eye. As to conditions: higher compound dose given for three months; cited from earlier work.
[5] abbreviates: Abeta 40, rat CSF, read-out: % reduction of rat CSF levels at 10 pmk.
Where [6] appears, read: Abeta 40, rat brain, read-out: % reduction of rat brain levels at 10 mpk.

Sequence of BACE 1 (beta secretase enzyme) (P56817 46-501): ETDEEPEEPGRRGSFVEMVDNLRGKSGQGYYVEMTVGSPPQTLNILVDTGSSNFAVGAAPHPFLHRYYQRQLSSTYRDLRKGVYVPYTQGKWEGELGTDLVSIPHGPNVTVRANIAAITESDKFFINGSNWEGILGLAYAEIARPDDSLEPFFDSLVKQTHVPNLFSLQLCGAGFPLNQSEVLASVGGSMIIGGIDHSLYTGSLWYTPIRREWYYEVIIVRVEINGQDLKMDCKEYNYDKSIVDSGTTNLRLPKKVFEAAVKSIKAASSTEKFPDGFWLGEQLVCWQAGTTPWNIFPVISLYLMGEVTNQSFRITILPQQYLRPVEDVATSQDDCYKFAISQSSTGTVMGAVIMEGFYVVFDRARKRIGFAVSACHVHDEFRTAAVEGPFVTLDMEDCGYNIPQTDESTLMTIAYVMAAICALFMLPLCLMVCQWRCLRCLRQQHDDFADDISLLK
Sequence of Cathepsin D (P07339 65-412, species assumed): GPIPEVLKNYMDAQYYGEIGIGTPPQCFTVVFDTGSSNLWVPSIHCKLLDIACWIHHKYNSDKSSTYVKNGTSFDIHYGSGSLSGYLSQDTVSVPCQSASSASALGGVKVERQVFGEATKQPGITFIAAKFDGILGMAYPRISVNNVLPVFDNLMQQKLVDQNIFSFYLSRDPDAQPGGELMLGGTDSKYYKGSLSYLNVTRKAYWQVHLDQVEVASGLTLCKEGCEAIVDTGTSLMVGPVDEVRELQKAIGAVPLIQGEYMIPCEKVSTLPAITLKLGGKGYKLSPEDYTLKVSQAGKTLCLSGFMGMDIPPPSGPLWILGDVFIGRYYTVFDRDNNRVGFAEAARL

Regarding `COc1ccc(C(=O)Nc2ccc3c(c2)[C@@]2(CCOC(N)=N2)c2cc(C4=CCOCC4)nc(F)c2O3)nc1` [Example 78, N-((5S)-2′-amino-3-(3,6-dihydro-2H-pyran-4-yl)-1-fluoro-5′,6′-dihydrospiro[chromeno[2,3-c]pyridine-5,4′-[1,3]oxazin]-7-yl)-5-methoxy-2-pyridinecarboxamide], the IC50 in data set [1] amounted to 0.2 nM; in data set [2] it was 1.5 nM; at Cathepsin D it was 184000 nM. Moreover, the results for the inhibition in vivo at 10 mg/kg in the data set on Abeta 40 (setting [5]) and in the data set with Abeta 40 (setting [6]) were 77% and 70%, respectively.

In the case of `COc1cnc(C(=O)Nc2ccc3c(c2)[C@@]2(CCOC(N)=N2)c2cc(C4CC4)ncc2O3)cn1` [Example 80, N-((5S)-2′-amino-3-cyclopropyl-5′,6′-dihydrospiro[chromeno[2,3-c]pyridine-5,4′-[1,3]oxazin]-7-yl)-5-methoxy-2-pyrazinecarboxamide], the results for the IC50 (in data set [1]; in data set [2]; at Cathepsin D) were 1.5 nM, 6.8 nM and 963000 nM, respectively. Also, the inhibition in vivo at 10 mg/kg in the data set with Abeta 40 (setting [5]) turned out to be 82%; with Abeta 40 (setting [6]), 80%.

Turning to `NC1=N[C@@]2(CCO1)c1cc(NC(=O)c3ccc(Cl)cn3)ccc1Oc1cnc(C3CC3)cc12` [Example 81, N-((5S)-2′-amino-3-cyclopropyl-5′,6′-dihydrospiro[chromeno[2,3-c]pyridine-5,4′-[1,3]oxazin]-7-yl)-5-chloro-2-pyridinecarboxamide], the IC50 was 1.1 nM in data set [1], 10.7 nM in data set [2] and 400000 nM on Cathepsin D. In addition, the inhibition in vivo at 10 mg/kg in the data set on Abeta 40 (setting [5]) was determined as 76%; with Abeta 40 (setting [6]) it was 64%.

Take `COc1ccc(C(=O)Nc2ccc3c(c2)[C@@]2(CCOC(N)=N2)c2cc(C4=CCCOC4)nc(F)c2O3)nc1` [Example 84, N-((5S)-2′-amino-3-(5,6-dihydro-2H-pyran-3-yl)-1-fluoro-5′,6′-dihydrospiro[chromeno[2,3-c]pyridine-5,4′-[1,3]oxazin]-7-yl)-5-methoxy-2-pyridinecarboxamide]: the IC50 in data set [1] amounted to 0.1 nM; in data set [2], 0.9 nM; on Cathepsin D, 313000 nM. In addition, the inhibition in vivo at 10 mg/kg was 83% with Abeta 40 (setting [5]) and 71% with Abeta 40 (setting [6]).

For `COc1ccc(C(=O)Nc2ccc3c(c2)[C@@]2(CCOC(N)=N2)c2cc(-c4cncc(F)c4)nc(F)c2O3)nc1` [Example 87, N-((5S)-2′-amino-1-fluoro-3-(5-fluoro-3-pyridinyl)-5′,6′-dihydrospiro[chromeno[2,3-c]pyridine-5,4′-[1,3]oxazin]-7-yl)-5-methoxy-2-pyridinecarboxamide], the IC50 in data set [1] was determined as 0.5 nM; in data set [2], 1.4 nM; on Cathepsin D, 256000 nM. Further, the results for the inhibition in vivo at 10 mg/kg with Abeta 40 (setting [5]) and in the data set with Abeta 40 (setting [6]) were 75% and 53%, respectively.

Take `Cc1nc(C(=O)Nc2ccc3c(c2)[C@@]2(CCOC(N)=N2)c2cc(-c4cncc(F)c4)nc(F)c2O3)cs1` [Example 88, N-((5S)-2′-amino-1-fluoro-3-(5-fluoro-3-pyridinyl)-5′,6′-dihydrospiro[chromeno[2,3-c]pyridine-5,4′-[1,3]oxazin]-7-yl)-2-methyl-1,3-thiazole-4-carboxamide]: the IC50 in data set [1] was determined as 0.2 nM; in data set [2] it was 0.6 nM; on Cathepsin D it was 362000 nM. The figures for the inhibition in vivo at 10 mg/kg with Abeta 40 (setting [5]) and in the data set with Abeta 40 (setting [6]) were 49% and 27%, respectively.

`NC1=N[C@@]2(CCO1)c1cc(NC(=O)c3ccc(F)cn3)ccc1Oc1c2cc(-c2cncc(F)c2)nc1F` [Example 89, N-((5S)-2′-amino-1-fluoro-3-(5-fluoro-3-pyridinyl)-5′,6′-dihydrospiro[chromeno[2,3-c]pyridine-5,4′-[1,3]oxazin]-7-yl)-5-fluoro-2-pyridinecarboxamide]: the IC50 in data set [1] came out at 0.6 nM; in data set [2], 1.6 nM; at Cathepsin D, 400000 nM. The inhibition in vivo at 10 mg/kg in the data set on Abeta 40 (setting [5]) was found to be 69%; with Abeta 40 (setting [6]), 46%.

Consider `COc1cnc(C(=O)Nc2ccc3c(c2)[C@@]2(CCOC(N)=N2)c2cc(-c4ccnc(F)c4)nc(F)c2O3)cn1` [Example 92, N-((5S)-2′-amino-1-fluoro-3-(2-fluoro-4-pyridinyl)-5′,6′-dihydrospiro[chromeno[2,3-c]pyridine-5,4′-[1,3]oxazin]-7-yl)-5-methoxy-2-pyrazinecarboxamide], for which the IC50 stood at 0.9 nM in data set [1], 1.8 nM in data set [2] and 400000 nM at Cathepsin D. Further, the inhibition in vivo at 10 mg/kg came to 79% in the data set on Abeta 40 (setting [5]) and 70% in the data set on Abeta 40 (setting [6]).

On to `COc1ccc(C(=O)Nc2ccc3c(c2)[C@@]2(CCSC(N)=N2)c2cc(C4=CCOCC4)nc(F)c2O3)nc1` [Example 101, N-((5S)-2′-amino-3-(3,6-dihydro-2H-pyran-4-yl)-1-fluoro-5′,6′-dihydrospiro[chromeno[2,3-c]pyridine-5,4′-[1,3]thiazin]-7-yl)-5-methoxy-2-pyridinecarboxamide], for which the IC50 is 0.7 nM in data set [1], 1.5 nM in data set [2] and 198000 nM at Cathepsin D. Also, the values for the inhibition in vivo at 10 mg/kg in the data set on Abeta 40 (setting [5]) and in the data set on Abeta 40 (setting [6]) were 76% and 59%, respectively.

In the case of `COc1cnc(C(=O)Nc2ccc3c(c2)[C@@]2(CCSC(N)=N2)c2cc(C4=CCCOC4)ncc2O3)cn1` [Example 104, N-((5S)-2′-amino-3-(5,6-dihydro-2H-pyran-3-yl)-5′,6′-dihydrospiro[chromeno[2,3-c]pyridine-5,4′-[1,3]thiazin]-7-yl)-5-methoxy-2-pyrazinecarboxamide], the results for the IC50 (in data set [1]; in data set [2]; at Cathepsin D) were 1 nM, 3.1 nM and 295000 nM, respectively. In addition, the inhibition in vivo at 10 mg/kg in the data set with Abeta 40 (setting [5]) is 64%; in the data set on Abeta 40 (setting [6]), 43%.

Regarding `COc1ccc(C(=O)Nc2ccc3c(c2)[C@@]2(CCSC(N)=N2)c2cc(C4=CCCOC4)nc(F)c2O3)nc1` [Example 111, N-((5S)-2′-amino-3-(5,6-dihydro-2H-pyran-3-yl)-1-fluoro-5′,6′-dihydrospiro[chromeno[2,3-c]pyridine-5,4′-[1,3]thiazin]-7-yl)-5-methoxy-2-pyridinecarboxamide], the IC50 amounted to 0.8 nM in data set [1], 2.5 nM in data set [2] and 569000 nM on Cathepsin D. Further, the inhibition in vivo at 10 mg/kg stood at 76% in the data set on Abeta 40 (setting [5]) and 58% in the data set on Abeta 40 (setting [6]).

Take `C[C@@]1(c2cc(-c3cncnc3)c(F)cc2F)CCSC(N)=N1` [LY 2811376]: the eye assessments result in data set [3] is recorded as “did not show any abnormalities”. Further, in data set [4], the retinal toxicity finding entry is on record as “ravaged the pigment epithelium of the rat's eye”.

Values taken from patent US9296759B2, “Amino-oxazine and amino-dihydrothiazine compounds as beta-secretase modulators and methods of use” (AMGEN INC., priority 2011, dated 2016).
